SMILES strings stand for the structures. A value given as a limit tells only on which side of the number the result lay.

The record followed here is US11261177B2, “Benzoxazinone derivatives useful as herbicides” (REDAG CROP PROTECTION LTD, priority 2017, dated 2022).

Holding throughout (type): in vivo
In assay [1] the test system is Lolium perenne. The assay is described as follows: Pre-emergence herbicidal assay, 96 cell trays, glasshouse. Particulars: 168 h, Lollium, assessed 7 days after treatment, read-out: % control of plant growth; for pest or weed control at 200 g/ha: 0.2 kg/ha; for pest or weed control at 1000 g/ha: 1 kg/ha; for pest or weed control at 5000 g/ha: 5 kg/ha. The method, then: (§1) The compounds were screened at three concentrations (0.2, 1 and 5 kg/ha) against 2 weed species (Stellaria media—Chickweed and Lolium perenne). The seeds were sown in the cells of 96 cell trays (4-6 seeds per cell). For the pre-emergence assay, 75 μL of a suspension of the test compound, at the above doses, was added on top of the soil 1 day after sowing. For the post-emergence assay, the seedlings were sprayed with 200 μL of a suspension of the test compound two weeks after sowing. The formulation used is 25% acetone and 75% water/0.01% Tween 20. Each treatment was replicated three times. The plants were kept in a glasshouse (uncontrolled conditions) and assessed 7 days after treatment. A small number of compounds were tested in a first trial. A larger number of compounds were tested in a second trial. The assessment was based on the % control of plant growth in each cell.

The subject of assay [2] is Stellaria media—Chickweed. Described as above. Particulars: 168 h, assessed 7 days after treatment, read-out: % control of plant growth; for pest or weed control at 200 g/ha: 0.2 kg/ha; for pest or weed control at 1000 g/ha: 1 kg/ha; for pest or weed control at 5000 g/ha: 5 kg/ha. How it is done: as §1
Assay [3] relates to Lolium perenne. The assay is described as follows: Post-emergence herbicidal assay, 96 cell trays, glasshouse. The note with it: 168 h, Lollium, assessed 7 days after treatment, read-out: % control of plant growth; for pest or weed control at 200 g/ha: 0.2 kg/ha; for pest or weed control at 1000 g/ha: 1 kg/ha; for pest or weed control at 5000 g/ha: 5 kg/ha. The method, then: as §1

The test system of assay [4] is Stellaria media—Chickweed. The assay is described as above. The note with it: 168 h, assessed 7 days after treatment, read-out: % control of plant growth; for pest or weed control at 200 g/ha: 0.2 kg/ha; for pest or weed control at 1000 g/ha: 1 kg/ha; for pest or weed control at 5000 g/ha: 5 kg/ha. How it is done:
as §1

Regarding `C#CCN1C(=O)C2(CC2)Oc2cc(F)c(-n3c(=O)n(C)c(=S)n(C)c3=O)cc21` [Comparative Example, 3-(7-Fluoro-3-oxo-4-(prop-2-yn-1-yl)-3,4-dihydrospiro[benzo[b][1,4]oxazine-2,1′-cyclopropan]-6-yl)-1,5-dimethyl-6-thioxo-1,3,5-triazinane-2,4-dione, reference compound], the pest or weed control at 200 g/ha with Lolium perenne [1] (first trial (Table 1)) is under 20%; in the assay with Lolium perenne [1] (second trial (Table 2)), under 20%; in assay [2] (first trial (Table 1)), under 20%; in assay [2] (second trial (Table 2)), 20 to 80%; in the assay with Lolium perenne [3] (first trial (Table 1)) it was 20 to 80%; in the assay on Lolium perenne [3] (second trial (Table 2)) it was 20 to 80%. For the same molecule, the pest or weed control at 200 g/ha was under 20% in assay [4] (first trial (Table 1)) and 20 to 80% in assay [4] (second trial (Table 2)). Also, the pest or weed control at 1000 g/ha with Lolium perenne [1] (first trial (Table 1)) was 20 to 80%; with Lolium perenne [1] (second trial (Table 2)) it was 20 to 80%; in assay [2] (first trial (Table 1)) it was under 20%; in assay [2] (second trial (Table 2)) it was 80 to 100%; in the assay with Lolium perenne [3] (first trial (Table 1)), 20 to 80%; in the assay on Lolium perenne [3] (second trial (Table 2)), 20 to 80%. The pest or weed control at 1000 g/ha in assay [4] (first trial (Table 1)) was 20 to 80%; in assay [4] (second trial (Table 2)), 80 to 100%. Moreover, the pest or weed control at 5000 g/ha with Lolium perenne [1] (first trial (Table 1)) was 80 to 100%; in the assay on Lolium perenne [1] (second trial (Table 2)), 80 to 100%; in assay [2] (first trial (Table 1)), under 20%; in assay [2] (second trial (Table 2)) it was 80 to 100%; in the assay with Lolium perenne [3] (first trial (Table 1)), 80 to 100%; with Lolium perenne [3] (second trial (Table 2)), 80 to 100%. Also, the pest or weed control at 5000 g/ha in assay [4] (first trial (Table 1)) lay in the range of 20 to 80%; in assay [4] (second trial (Table 2)), 80 to 100%.
On to `C#CCN1C(=O)C2(CC2)Oc2cc(F)c(N3C(=O)C4=C(CCCC4)C3=O)cc21` [Example 1, 2-(7-Fluoro-3-oxo-4-(prop-2-yn-1-yl)-3,4-dihydrospiro[benzo[b][1,4]oxazine-2,1′-cyclopropan]-6-yl)-4,5,6,7-tetrahydro-1H-isoindole-1,3(2H)-dione], for which the pest or weed control at 200 g/ha in the assay on Lolium perenne [1] (first trial (Table 1)) was 20 to 80%; with Lolium perenne [1] (second trial (Table 2)) it was 20 to 80%; in assay [2] (first trial (Table 1)) it was under 20%; in assay [2] (second trial (Table 2)), 20 to 80%; in the assay on Lolium perenne [3] (first trial (Table 1)) it was under 20%; in the assay with Lolium perenne [3] (second trial (Table 2)), 20 to 80%. Besides, the pest or weed control at 200 g/ha is under 20% in assay [4] (first trial (Table 1)) and 80 to 100% in assay [4] (second trial (Table 2)). Further, the pest or weed control at 1000 g/ha in the assay with Lolium perenne [1] (first trial (Table 1)) was 20 to 80%; in the assay with Lolium perenne [1] (second trial (Table 2)) it was 20 to 80%; in assay [2] (first trial (Table 1)) it was under 20%; in assay [2] (second trial (Table 2)), 80 to 100%; in the assay with Lolium perenne [3] (first trial (Table 1)), 20 to 80%; in the assay on Lolium perenne [3] (second trial (Table 2)), 80 to 100%. For the same molecule, the pest or weed control at 1000 g/ha was 20 to 80% in assay [4] (first trial (Table 1)) and 80 to 100% in assay [4] (second trial (Table 2)). In addition, the pest or weed control at 5000 g/ha in the assay with Lolium perenne [1] (first trial (Table 1)) is 20 to 80%; with Lolium perenne [1] (second trial (Table 2)), 80 to 100%; in assay [2] (first trial (Table 1)), under 20%; in assay [2] (second trial (Table 2)), 80 to 100%; in the assay with Lolium perenne [3] (first trial (Table 1)), 80 to 100%; with Lolium perenne [3] (second trial (Table 2)) it was 80 to 100%. Besides, the pest or weed control at 5000 g/ha was in the range of 20 to 80% in assay [4] (first trial (Table 1)) and 80 to 100% in assay [4] (second trial (Table 2)).
Consider `O=C1N(CC2CC2)c2cc(/N=c3\sc(=O)n4n3CCCC4)c(F)cc2OC12CC2` [Example 37], for which, in the assay on Lolium perenne [3] (second trial (Table 2)), the pest or weed control at 200 g/ha fell in the range of 20 to 80%, the pest or weed control at 1000 g/ha is 20 to 80% and the pest or weed control at 5000 g/ha is 80 to 100%. In assay [4] (second trial (Table 2)), the pest or weed control at 200 g/ha lay in the range of 80 to 100%, the pest or weed control at 1000 g/ha is 80 to 100% and the pest or weed control at 5000 g/ha lay within 80 to 100%.
`COC(=O)C(C)N1C(=O)C2(CC2)Oc2cc(F)c(/N=c3\sc(=O)n4n3CCCC4)cc21` (stereo not drawn) [Example 38]: in the assay on Lolium perenne [3] (second trial (Table 2)), the pest or weed control at 200 g/ha is 20 to 80%, the pest or weed control at 1000 g/ha lay within 20 to 80% and the pest or weed control at 5000 g/ha was 80 to 100%. Further, in assay [4] (second trial (Table 2)), the pest or weed control at 200 g/ha was in the range of 80 to 100%, the pest or weed control at 1000 g/ha was 80 to 100% and the pest or weed control at 5000 g/ha fell in the range of 80 to 100%.
As for `C#CCN1C(=O)C2(CC2)Oc2cc(F)c(N3C(=O)C4COCCN4C3=O)cc21` (stereo not drawn) [Example 45, 2-(7-Fluoro-3-oxo-4-(prop-2-yn-1-yl)-3,4-dihydrospiro[benzo[b][1,4]oxazine-2,1′-cyclopropan]-6-yl)tetrahydro-1H-imidazo[5,1-c][1,4]oxazine-1,3(2H)-dione], in the assay with Lolium perenne [3] (second trial (Table 2)), the pest or weed control at 200 g/ha was 80 to 100%, the pest or weed control at 1000 g/ha lay within 80 to 100% and the pest or weed control at 5000 g/ha lay within 80 to 100%. For the same molecule, in assay [4] (second trial (Table 2)), the pest or weed control at 200 g/ha is 80 to 100%, the pest or weed control at 1000 g/ha lay in the range of 80 to 100% and the pest or weed control at 5000 g/ha fell in the range of 80 to 100%.
Consider `O=C1C2CC(O)CN2C(=O)N1c1cc2c(cc1F)OC1(CC1)C(=O)N2CC1CC1` (stereo not drawn) [Example 46], for which, in the assay on Lolium perenne [3] (second trial (Table 2)), the pest or weed control at 200 g/ha is under 20%, the pest or weed control at 1000 g/ha was under 20% and the pest or weed control at 5000 g/ha is under 20%. Also, in assay [4] (second trial (Table 2)), the pest or weed control at 200 g/ha is under 20%, the pest or weed control at 1000 g/ha is under 20% and the pest or weed control at 5000 g/ha is under 20%.
On to `O=C1C2COCCN2C(=O)N1c1cc2c(cc1F)OC1(CC1)C(=O)N2CC1CC1` (stereo not drawn) [Example 48], for which, in the assay on Lolium perenne [3] (second trial (Table 2)), the pest or weed control at 200 g/ha is under 20%, the pest or weed control at 1000 g/ha is under 20% and the pest or weed control at 5000 g/ha is 20 to 80%. Moreover, in assay [4] (second trial (Table 2)), the pest or weed control at 200 g/ha lay in the range of 80 to 100%, the pest or weed control at 1000 g/ha is 80 to 100% and the pest or weed control at 5000 g/ha was 80 to 100%.
Turning to `COC(=O)C(C)N1C(=O)C2(CC2)Oc2cc(F)c(N3C(=O)C4COCCN4C3=O)cc21` (stereo not drawn) [Example 49], in the assay on Lolium perenne [3] (second trial (Table 2)), the pest or weed control at 200 g/ha was under 20%, the pest or weed control at 1000 g/ha was under 20% and the pest or weed control at 5000 g/ha was under 20%. For the same molecule, in assay [4] (second trial (Table 2)), the pest or weed control at 200 g/ha lay within 80 to 100%, the pest or weed control at 1000 g/ha fell in the range of 80 to 100% and the pest or weed control at 5000 g/ha fell in the range of 80 to 100%.
For the molecule `N#CCN1C(=O)C2(CC2)Oc2cc(F)c(N3C(=O)C4COCCN4C3=O)cc21` (stereo not drawn) [Example 50], in the assay on Lolium perenne [3] (second trial (Table 2)), the pest or weed control at 200 g/ha is under 20%, the pest or weed control at 1000 g/ha is under 20% and the pest or weed control at 5000 g/ha is under 20%. In assay [4] (second trial (Table 2)), the pest or weed control at 200 g/ha fell in the range of 80 to 100%, the pest or weed control at 1000 g/ha lay in the range of 80 to 100% and the pest or weed control at 5000 g/ha was in the range of 80 to 100%.
As for `CC(C)=CCN1C(=O)C2(CC2)Oc2cc(F)c(N3C(=O)C4COCCN4C3=O)cc21` (stereo not drawn) [Example 51], in the assay on Lolium perenne [3] (second trial (Table 2)), the pest or weed control at 200 g/ha is under 20%, the pest or weed control at 1000 g/ha was under 20% and the pest or weed control at 5000 g/ha was under 20%. In assay [4] (second trial (Table 2)), the pest or weed control at 200 g/ha is 80 to 100%, the pest or weed control at 1000 g/ha was in the range of 80 to 100% and the pest or weed control at 5000 g/ha was in the range of 80 to 100%.
For `O=C1C2CCCN2C(=O)N1c1cc2c(cc1F)OC1(CC1)C(=O)N2CC1CC1` (stereo not drawn) [Example 52], in the assay with Lolium perenne [3] (second trial (Table 2)), the pest or weed control at 200 g/ha is under 20%, the pest or weed control at 1000 g/ha was 20 to 80% and the pest or weed control at 5000 g/ha fell in the range of 20 to 80%. In assay [4] (second trial (Table 2)), the pest or weed control at 200 g/ha was in the range of 80 to 100%, the pest or weed control at 1000 g/ha is 80 to 100% and the pest or weed control at 5000 g/ha lay within 80 to 100%.
